# Measured values reported in PubChem BioAssay (NCI).
#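 48-hour exposure; five concentrations; linearly interpolated endpoints. The concentration for 50% growth inhibition is given as GI50. TGI marks complete inhibition of growth.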
# Experiments:
# Assay in all cases: DTP human tumour cell line panel, 48 h
# TK-10 renal = test system: TK-10 renal
# 786-0 renal = test system: 786-0 renal
# BT-549 breast = test system: BT-549 breast
# SNB-19 CNS = test system: SNB-19 CNS
# SF-539 CNS = test system: SF-539 CNS
# T-47D breast = test system: T-47D breast
# MDA-MB-231 breast = test system: MDA-MB-231 breast
# SF-268 CNS = test system: SF-268 CNS
# OVCAR-5 ovarian = test system: OVCAR-5 ovarian
# PC-3 prostate = test system: PC-3 prostate
# MALME-3M melanoma = test system: MALME-3M melanoma
# MCF7 breast = test system: MCF7 breast
# SNB-75 CNS = test system: SNB-75 CNS
# SK-OV-3 ovarian = test system: SK-OV-3 ovarian
# HOP-62 NSCLC = test system: HOP-62 NSCLC
# SF-295 CNS = test system: SF-295 CNS
# IGROV1 ovarian = test system: IGROV1 ovarian
# HCC-2998 colon = test system: HCC-2998 colon
# NCI-H522 lung = test system: NCI-H522 lung
# NCI-H226 lung = test system: NCI-H226 lung
# HS 578T breast = test system: HS 578T breast
# U251 CNS = test system: U251 CNS
# ACHN renal = test system: ACHN renal
# RXF 393 renal = test system: RXF 393 renal
# OVCAR-8 ovarian = test system: OVCAR-8 ovarian
# SN12C renal = test system: SN12C renal
# A498 renal = test system: A498 renal
# EKVX NSCLC = test system: EKVX NSCLC
compound,measurement,setting,value
CN1CCOCCOCCOc2ccccc2NC(=O)c2nc(cnc2N)-c2ccc(cc2)S1(=O)=O,GI50,TK-10 renal,11.3 µM
same,TGI,TK-10 renal,49.4 µM
same,GI50,786-0 renal,0.0398 µM
same,TGI,786-0 renal,23.3 µM
same,GI50,BT-549 breast,7.77 µM
same,TGI,BT-549 breast,> 100 µM
same,GI50,SNB-19 CNS,16.6 µM
same,TGI,SNB-19 CNS,> 100 µM
same,GI50,SF-539 CNS,0.0371 µM
same,TGI,SF-539 CNS,> 100 µM
same,GI50,T-47D breast,> 100 µM
same,TGI,T-47D breast,> 100 µM
same,GI50,MDA-MB-231 breast,32.4 µM
same,TGI,MDA-MB-231 breast,> 100 µM
same,GI50,SF-268 CNS,11.1 µM
same,TGI,SF-268 CNS,> 100 µM
same,GI50,OVCAR-5 ovarian,> 100 µM
same,TGI,OVCAR-5 ovarian,> 100 µM
same,GI50,PC-3 prostate,> 100 µM
same,TGI,PC-3 prostate,> 100 µM
same,GI50,MALME-3M melanoma,> 100 µM
same,TGI,MALME-3M melanoma,> 100 µM
same,GI50,MCF7 breast,0.0397 µM
same,TGI,MCF7 breast,> 100 µM
same,GI50,SNB-75 CNS,2.85 µM
same,TGI,SNB-75 CNS,17.7 µM
same,GI50,SK-OV-3 ovarian,7.12 µM
same,TGI,SK-OV-3 ovarian,> 100 µM
same,GI50,HOP-62 NSCLC,14.7 µM
same,TGI,HOP-62 NSCLC,46.2 µM
same,GI50,SF-295 CNS,4.52 µM
same,TGI,SF-295 CNS,> 100 µM
same,GI50,IGROV1 ovarian,0.0719 µM
same,TGI,IGROV1 ovarian,> 100 µM
same,GI50,HCC-2998 colon,> 100 µM
same,TGI,HCC-2998 colon,> 100 µM
same,GI50,NCI-H522 lung,5.55 µM
same,TGI,NCI-H522 lung,> 100 µM
same,GI50,NCI-H226 lung,59.9 µM
same,TGI,NCI-H226 lung,> 100 µM
same,GI50,HS 578T breast,3.56 µM
same,TGI,HS 578T breast,> 100 µM
same,GI50,U251 CNS,5.16 µM
same,TGI,U251 CNS,> 100 µM
same,GI50,ACHN renal,0.0504 µM
same,TGI,ACHN renal,> 100 µM
same,GI50,RXF 393 renal,1.59 µM
same,TGI,RXF 393 renal,21.9 µM
same,GI50,OVCAR-8 ovarian,7.1 µM
same,TGI,OVCAR-8 ovarian,> 100 µM
same,GI50,SN12C renal,> 100 µM
same,TGI,SN12C renal,> 100 µM
same,GI50,A498 renal,0.0241 µM
same,TGI,A498 renal,3.93 µM
same,GI50,EKVX NSCLC,60.2 µM
same,TGI,EKVX NSCLC,> 100 µM
